Experimental data taken from patent publication US5776892A, “Anti-inflammatory peptides” (Curative Health Services, Inc., priority 1994, dated 1998).
Where “and” joins values, the source holds several entries; their conditions need not be identical. Identical values can stand only once. No end group written: not given here.

Tested on: arachidonic acid induced inflammation in mouse ear
Test: Mouse ear model, arachidonic acid (AA) induced inflammation, ear thickness
Assay type: in vivo
Conditions: for % Reduction of Ear Swelling / Ear Thickness: Table I, sc Alzet minipump
Experimental: The anti-inflammatory properties of CT-112 (SEQ. ID NO: 1) were assessed using a standardized assay for anti-inflammatory activity, i.e., the mouse ear model in which arachidonic acid (AA) is used to induce an inflammatory reaction (Young et al., 1984, J. Invest. Dermatol. 82:367-371; Doherty, et al., 1988, J. Invest. Dermatol. 91:298-302).
Female mice (C57BL/6UAF, Charles River Breeding Laboratories, approximately 15-18 g) were obtained and acclimated for 2 weeks prior to use. The animals were approximately 14 weeks old at the start of the study.
To prepare minipumps for implantation, CT-112 (SEQ. ID NO: 1) was dissolved in PBS. The material was loaded into Alzet minipumps set to deliver 0.05 (5 animals), 0.1 (10 animals), 1 (10 animals), or 2.5 (5 animals) mg of CT-112 (SEQ. ID NO: 1) per animal per day. Minipumps for implantation into control animals contained only PBS. As a positive control, one set of 10 mice received 100 mg/kg of phenidone, a potent 5-lipoxygenase inhibitor which acts as an anti-inflammatory agent, 15 min prior to challenge with AA.
For subcutaneous implantation of minipumps, animals were anesthetized with Ketamine/Xylazine. The Ketamine (Aveco Lot #440140) was injected at 80 mg/kg and the Xylazine (Rugby Laboratories Lot #26040-B) at 16 mg/kg and the Alzet pumps were implanted subcutaneously in the dorsothoracic area. Animals were allowed to recover and then housed and given food and water ad libitum for 5 days.
On the sixth day following pump implantation, 0.01 ml of AA was applied to the inner and outer surfaces of the right ear by means of an automatic microliter pipette. One hr following AA application, the mice were sacrificed and ear thickness was measured with a Mitutoyo No. 7300 Gauge Caliper. The left ears were also measured as an internal control.
Mice were implanted with Alzet mini-pumps set to deliver 60 mg/kg/day for either 7, 3, or 1 days. A separate group of 5 mice received 3 intraperitoneal injections of CT-112 (60 mg/kg/injection) at 24, 1 and 0.25 hr prior to AA challenge. CT-112 (SEQ. ID NO: 1) was prepared for injection by dissolving the compound in Dulbecco's PBS to give a final CT-112 (SEQ. ID NO: 1) concentration of 5 mg/ml. The control mice were implanted with Alzet minipumps that delivered PBS for 7 days. The AA challenge was the same as described supra in Example 7.
Administration of CT-112 (SEQ. ID NO: 1) (60 mg/kg/injection) via multiple intraperitoneal injections was performed at the following times prior to AA challenge:
In addition, the effect of a single administration of CT-112 (SEQ. ID NO: 1) (60 mg/kg) by intraperitoneal injection was performed at either 1 or 3 hr prior to AA challenge. Control mice had Alzet minipumps implanted to deliver PBS for 7 days prior to AA challenge. The AA challenge was the same as described supra in Example 7. The results of the multiple dosing regimens and the 1 hr and 3 hr single dosing regimens were compared to the anti-inflammatory activity of CT-112 (SEQ. ID NO: 1) delivered via Alzet minipump set to deliver 60 mg/kg/day for 7 days using 5 animals per treatment.
In a separate experiment, the effect of multiple intraperitoneal injections of CT-112 (SEQ. ID NO: 1) at either 6, 3, 1 and 0.25 hr, or 16, 3, 1 and 0.25 hr prior to AA challenge was assessed. The results of both multi-dosing regimens were compared to both phenidone (100 mg/kg administered 15 min prior to AA challenge) and CT-112 (SEQ. ID NO: 1) administered via Alzet mini-pump (60 mg/kg/day for 7 days). For this latter study, the number of animals receiving the single injection of CT-112 (SEQ. ID NO: 1) was increased from 5 to 10.
Administration to mice of CT-112 (SEQ. ID NO: 1) (60 mg/kg/injection) via multiple subcutaneous injections prior to AA challenge was performed at:
In addition, other mice received only a single subcutaneous injection of CT-112 (SEQ. ID NO: 1) (60 mg/kg) at either 3 or 1 hr prior to AA challenge. […]

[1] = Table III, 1-day pump, 60 mg/kg/day
[2] = Table III, 3-day pump, 60 mg/kg/day
[3] = Table III, 7-day pump, 60 mg/kg/day
[4] = Table III, ip 60 mg/kg/injection at 24, 1, 0.25 hr prior to AA
[5] = Table IV, 7-day pump, 60 mg/kg/day
[6] = Table IV, ip 60 mg/kg/injection at 1, 0.25 hr prior to AA
[7] = Table IV, ip 60 mg/kg/injection at 3, 1, 0.25 hr prior to AA
[8] = Table IV, ip 60 mg/kg/injection at 6, 3, 1, 0.25 hr prior to AA
[9] = Table IV, single ip 60 mg/kg 3 hr prior to AA
[10] = Table V, 7-day pump, 60 mg/kg/day
[11] = Table V, ip at 6, 3, 1, 0.25 hr prior to AA
[12] = Table V, ip at 16, 3, 1, 0.25 hr prior to AA
[13] = Table VI, 7-day pump, 60 mg/kg/day
[14] = Table VI, sc 60 mg/kg/injection at 1, 0.25 hr prior to AA
[15] = Table VI, sc 60 mg/kg/injection at 3, 1, 0.25 hr prior to AA
[16] = Table VI, sc 60 mg/kg/injection at 6, 3, 1, 0.25 hr prior to AA
[17] = Table VI, single sc 60 mg/kg 1 hr prior to AA
[18] = Table VI, single sc 60 mg/kg 3 hr prior to AA
[19] = Table VII, 3 day pump, 60 mg/kg/day
[20] = Table VII, single ip 3 hr prior to AA
[21] = Table VII, single sc 0.25 hr prior to AA
[22] = Table VII, single sc 1 hr prior to AA
[23] = Table VII, single sc 3 hr prior to AA
[24] = Table VII, single sc 6 hr prior to AA
[25] = Table VIII, 3 day pump, 60 mg/kg/day
[26] = Table VIII, po 200 mg/kg/gavage at 1, 0.25 hr prior to AA
[27] = Table VIII, po 200 mg/kg/gavage at 6, 3, 1, 0.25 hr prior to AA
[28] = Table VIII, single po 200 mg/kg 1 hr prior to AA
[29] = Table VIII, single po 200 mg/kg 3 hr prior to AA
[30] = Table XI, 60 mg/kg/day minipump, 3 days

Sequence: TTSQVRPR [CT-112, octapeptide derived from platelet factor 4]
- % Reduction of Ear Swelling (0.05 mg/animal/day): 43.1%
- Ear Thickness (0.05 mg/animal/day, AA on day 6): 0.01577 ± 0.00155 in
- % Reduction of Ear Swelling (0.1 mg/animal/day): 43.1%
- Ear Thickness (0.1 mg/animal/day): 0.01577 ± 0.00191 in
- % Reduction of Ear Swelling (1.0 mg/animal/day): 89.0%
- Ear Thickness (1.0 mg/animal/day): 0.01128 ± 0.00291 in
- % Reduction of Ear Swelling (2.5 mg/animal/day): 95.6%
- Ear Thickness (2.5 mg/animal/day): 0.0106 ± 0.00175 in
- % Inhibition of Inflammation [1]: 112%
- Thickness Difference (Left-Right) [1]: -0.00074 ± 0.00119 in
- % Inhibition of Inflammation [2]: 119%
- Thickness Difference (Left-Right) [2]: -0.00115 ± 0.00058 in
- % Inhibition of Inflammation [3]: 108%
- Thickness Difference (Left-Right) [3]: -0.00051 ± 0.00116 in
- % Inhibition of Inflammation [4]: 62%
- Thickness Difference (Left-Right) [4]: 0.00226 ± 0.00124 in
- % Inhibition of Inflammation [5]: 94% and 93.9%
- Thickness Difference (Left-Right) [5]: 0.00033 ± 0.00065 in
- % Inhibition of Inflammation [6]: 64.4%
- Thickness Difference (Left-Right) [6]: 0.00192 ± 0.00148 in
- % Inhibition of Inflammation [7]: 73.8%
- Thickness Difference (Left-Right) [7]: 0.00141 ± 0.00138 in
- % Inhibition of Inflammation [8]: 73.2%
- Thickness Difference (Left-Right) [8]: 0.00144 ± 0.00126 in
- Thickness Difference (Left-Right) (Table IV, single ip 60 mg/kg 1 hr prior to AA): 0.00308 ± 0.00189 in
- % Inhibition of Inflammation (Table IV, single ip 60 mg/kg 1 hr prior to AA, 60 mg/kg): 43% and 42.9%
- % Inhibition of Inflammation [9]: 78.5%
- Thickness Difference (Left-Right) [9]: 0.00116 ± 0.001 in
- % Inhibition of Inflammation [10]: 100.5%
- Thickness Difference (Left-Right) [10]: -0.00003 ± 0.0012 in
- % Inhibition of Inflammation [11]: 61.4%
- Thickness Difference (Left-Right) [11]: 0.00249 ± 0.0017 in
- % Inhibition of Inflammation [12]: 56.3%
- Thickness Difference (Left-Right) [12]: 0.00283 ± 0.00218 in
- % Inhibition of Inflammation [13]: 87% and 86.5%
- Thickness Difference (Left-Right) [13]: 0.00083 ± 0.00084 in
- % Inhibition of Inflammation [14]: 68.4%
- Thickness Difference (Left-Right) [14]: 0.00195 ± 0.00131 in
- % Inhibition of Inflammation [15]: 68.7%
- Thickness Difference (Left-Right) [15]: 0.00193 ± 0.0007 in
- % Inhibition of Inflammation [16]: 76.2%
- Thickness Difference (Left-Right) [16]: 0.00147 ± 0.00041 in
- % Inhibition of Inflammation [17]: 71.8%
- Thickness Difference (Left-Right) [17]: 0.00174 ± 0.00128 in
- % Inhibition of Inflammation [18]: 65.5%
- Thickness Difference (Left-Right) [18]: 0.00213 ± 0.00089 in
- % Inhibition of Inflammation [19]: 67.0%
- Thickness Difference (Left-Right) [19]: 0.00127 ± 0.00128 in
- % Inhibition of Inflammation [20]: 37.2%
- Thickness Difference (Left-Right) [20]: 0.00242 ± 0.00187 in
- % Inhibition of Inflammation [21]: 34.7%
- Thickness Difference (Left-Right) [21]: 0.00252 ± 0.00128 in
- % Inhibition of Inflammation [22]: 44.5%
- Thickness Difference (Left-Right) [22]: 0.00214 ± 0.00122 in
- % Inhibition of Inflammation [23]: 36.9%
- Thickness Difference (Left-Right) [23]: 0.00243 ± 0.00107 in
- % Inhibition of Inflammation [24]: 69.6%
- Thickness Difference (Left-Right) [24]: 0.00117 ± 0.00066 in
- % Inhibition of Inflammation [25]: 88% and 88.4%
- Thickness Difference (Left-Right) [25]: 0.00058 ± 0.00086 in
- % Inhibition of Inflammation [26]: 51.9%
- Thickness Difference (Left-Right) [26]: 0.00241 ± 0.00124 in
- Thickness Difference (Left-Right) (Table VIII, po 200 mg/kg/gavage at 3, 1, 0.25 hr prior to AA): 0.0028 ± 0.00114 in
- % Inhibition of Inflammation (Table VIII, po 200 mg/kg/gavage at 3, 1, 0.25 hr prior to AA, 200 mg/kg): 44% and 44.1%
- % Inhibition of Inflammation [27]: 73.3%
- Thickness Difference (Left-Right) [27]: 0.00134 ± 0.00257 in
- % Inhibition of Inflammation [28]: 72.3%
- Thickness Difference (Left-Right) [28]: 0.00139 ± 0.00122 in
- % Inhibition of Inflammation [29]: 93.8%
- Thickness Difference (Left-Right) [29]: 0.00031 ± 0.00198 in
- % Inhibition of Inflammation (Table XI, 6 mg/kg/day minipump, 3 days): 40.8%
- Thickness Difference (Left-Right) (Table XI, 6 mg/kg/day minipump, AA 3 days after implantation): 0.00381 ± 0.00066 in
- % Inhibition of Inflammation [30]: 85.2%
- Thickness Difference (Left-Right) [30]: 0.00095 ± 0.00064 in
- Thickness Difference (Left-Right) (Table XIII, 60 mg/kg/day via Alzet pump for 24 hr): 0.00132 ± 0.00086 in
- Thickness Difference (Left-Right) (Table XIV, 60 mg/kg/day via Alzet pump for 24 hr): 0.00134 ± 0.00044 in
- Thickness Difference (Left-Right) (Table XV, 60 mg/kg/day via Alzet pump for 24 hr): 0.00154 ± 0.00092 in
- % Inhibition (Table XVI, single 6 mg/kg sc 4 hr prior to AA, ear thickness 1 hr post-challenge): 64.9%
- duration of activity (after single subcutaneous injection): greater than 6 hr
- inhibition of the inflammatory process (ip 60 mg/kg/injection, all multi-dosing regimens and the 3 hr single dosing regimen): approximately 70%
- reduction in inflammation (multiple ip injections at either 6, 3, 1, 0.25 hr or 16, 3, 1, 0.25 hr prior to AA): 56-61%
- inhibition of the inflammatory process (oral 200 mg/kg/gavage, all multi- and single-dosing regimens except 3, 1, 0.25 hr): 52-94%
